From patent publication US20070142437A1, “CHEMICAL COMPOUNDS” (priority 2005, published 2007) come the findings set out here.

Holding throughout (type): biochemical
One assay concerns the target T1, CDK4 (Homo sapiens, UniProt P11802).
T1 construct: made in house
Briefly: CDK4 substrate phosphorylation assay (Rb protein, 33P-ATP). To be noted: Inhibition of CDK4. On the procedure: (§1) The compounds of the present invention have valuable pharmacologic properties. Different compounds from this class are particularly effective at inhibiting CDK2 and/or CDK4 enzymes at concentrations, which range from 0.0001 to 1 μM and additionally show specificity relative to other kinases. Substrate phosphorylation assays were carried out as follows:
Cyclin D1 and cyclin-dependent kinase 4 were expressed utilizing a baculovirus expression system. The catalytic activity of CDK4 protein was assayed by measuring the phosphorylation of Rb protein. A truncated Rb protein (residues 773-928 of the native retinoblastoma protein, fused to glutathione S-transferase to facilitate purification) was used as the phosphoryl acceptor. The assay conditions were 100 mM HEPES (N-[2-hydroxyethyl]piperzine-N′-[2-ethanesulfonic acid]), pH 7.5, 0.5 μM GST-Rb protein, 1 μCi/mL [^33P]-ATP (1 nM-20 μM), 5-20 mM MgCl2, 2.5 mM EDTA, 1 mM dithiotheitol, 0.2 mg/mL bovine serum albumin, 2% (v/v) dimethyl sulfoxide (DMSO), CDK4 enzyme (5-50 nM) in a final volume of 50 μL. Reactions were incubated for time periods of 10-60 min at 30° C. and terminated by the addition of 50 μL quench (1 mM ATP/100 mM EDTA, pH 7.0). Detection of protein phosphorylation was accomplished by scintillation counting following collection of protein in 96 well plates coated with Glutathione or trapping of protein onto phosphocellulose filters. Counts detected by these methodologies minus the appropriate background were assumed to be proportional to the reaction initial rates. IC50 values were determined by measuring enzyme activity in the presence of different inhibitor concentrations (0.1 nM to 50 μM). IC50s were determined by a least squares fit to the equation CPM=Vmax*(1−([I]/(K+[I])))+nsb, or pIC50s were determined by a fit to the equation CPM=nsb+(Vmax−nsb)/(1+(x/10^x−pIC50)), where nsb are the background counts.

The next assay has as its target T2, CDK2 (Homo sapiens, UniProt P24941).
T2 construct: made in house
Briefly: CDK2 substrate phosphorylation assay (biotinylated peptide, 32P-ATP). To be noted: Inhibition of CDK2. The method, then: as §1
Cyclin dependent protein kinase 2 assays utilized the peptide Biotin-aminohexyl-ARRPMSPKKKA-NH2 as phosphoryl group acceptor. CDK2 was expressed utilizing a baculovirus expression system and was partially purified to comprise 20-80% of total protein, with no detectable competing reactions present. Typically, assays were performed by incubating enzyme (0.2-10 nM), with and without inhibitor, peptide substrate (1-10 nM), [g-^32P]ATP (1-20 nM), and 10-20 mM Mg^2+ for periods of time generally within the range 10-120 minutes. Reactions were terminated with 0.2-2 volumes of either 20% acetic acid or 50-100 mM EDTA buffered to pH 7 (substrate consumption <20%). The buffer employed in enzyme assay was 100 mM HEPES pH 7.5 containing 0.1 mg/mL BSA and 5% DMSO. Inhibitors were diluted in 100% DMSO prior to addition into the assay. Detection of peptide phosphorylation was accomplished by scintillation counting following either collection of peptide onto phosphocellulose filters (for reactions stopped with acetic acid), collection of peptide in wells of 96 well plates coated with Streptavidin (Pierce) (reactions were stopped with EDTA), or addition of Avidin coated Scintillant impregnated beads (Scintillation Proximity Assays from Amersham, reactions were stopped with EDTA). Counts detected by any of these methodologies minus the appropriate background (assays with additional 40 mM EDTA or lacking peptide substrate) were assumed to be proportional to the reaction initial rates, and IC50s were determined by a least squares fit to the equation CPM=Vmax*(1−([I]/(K+[I])))+nsb, or −pIC50s were determined by a fit to the equation CPM=nsb+(Vmax−nsb)/(1+(x/10^x−pIC50)), where nsb are the background counts. Filters are washed four times with 75 mM phosphoric acid. Radioactivity was determined by liquid scintillation counting.

In another assay the target is hVEGFR2 (Homo sapiens, UniProt P35968). Briefly: VEGFR2 HTRF assay. To be noted: Inhibition of VEGFR2. On the procedure:
The compounds of the present invention elicit important and measurable pharmacological responses. Different compounds from this class are particularly effective at inhibiting VEGFR2 enzymes, as described by the VEGFR2 HTRF assay below, at concentrations, which range from 0.0001 to 1 μM.
The assays were performed in 96-well black plates. 10 nM hVEGFR2 was used to phosphorylate 0.36 μM peptide (Biotin-Ahx-EEEEYFELVAKKKK) in the presence of 75 μM ATP, 5 mM MgCl2, 0.3 mM DTT, 0.1 mg/ml BSA, and 0.1 M HEPES (pH 7.5). 10 μl 0.5 M EDTA was added to reactions as negative controls. The 50 μl kinase reaction with or without inhibitors in 5% DMSO was carried out at room temperature for 45 minutes, then stopped by 40 μl of 125 mM EDTA. 2.4 μg/ml Streptavidin-APC and 0.15 μg/ml Eu-α-pY, in the presence of 0.1 mg/ml BSA, 0.1 M HEPES (pH7.5), were added to a final volume of 140 μl. The plate was incubated for 10 min at room temperature (22° C.) and read on the Victor with the time resolved fluorescence mode by exciting at 340 nm and reading the emission at 665 nm.
• Peptide from Synpep (Dublin, Calif.) • ATP, MgCl2, DTT, BSA, HEPES, EDTA, DMSO from Sigma Streptavidin-APC from Molecular Probes (Eugene, Oreg.) • Eu-α-pY from EG&G Wallac (Gaithersburg, Md.)

The term IC50 denotes the midpoint of a concentration-inhibition curve. The low end stands for greater potency in that assay, the high end for weaker potency in that assay.

T1 sequence (P11802 whole entry, species assumed): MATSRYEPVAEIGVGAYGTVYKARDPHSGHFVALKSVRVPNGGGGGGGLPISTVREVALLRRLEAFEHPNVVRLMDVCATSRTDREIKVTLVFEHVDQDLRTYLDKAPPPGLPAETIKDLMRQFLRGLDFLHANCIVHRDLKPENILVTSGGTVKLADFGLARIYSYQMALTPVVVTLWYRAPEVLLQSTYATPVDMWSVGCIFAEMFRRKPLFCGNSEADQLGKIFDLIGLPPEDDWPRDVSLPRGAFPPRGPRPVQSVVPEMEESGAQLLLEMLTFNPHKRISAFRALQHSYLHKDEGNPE
T1 sequence (P24385 whole entry partner, species assumed): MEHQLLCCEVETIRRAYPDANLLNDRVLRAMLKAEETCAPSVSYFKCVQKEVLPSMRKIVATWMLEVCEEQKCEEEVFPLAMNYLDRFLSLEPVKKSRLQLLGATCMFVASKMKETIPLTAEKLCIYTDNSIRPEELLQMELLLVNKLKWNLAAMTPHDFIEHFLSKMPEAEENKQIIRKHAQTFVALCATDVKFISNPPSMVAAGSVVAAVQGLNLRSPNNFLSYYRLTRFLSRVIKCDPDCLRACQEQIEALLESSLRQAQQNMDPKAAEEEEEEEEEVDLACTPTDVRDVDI
hVEGFR2, sequence (P35968 20-1356): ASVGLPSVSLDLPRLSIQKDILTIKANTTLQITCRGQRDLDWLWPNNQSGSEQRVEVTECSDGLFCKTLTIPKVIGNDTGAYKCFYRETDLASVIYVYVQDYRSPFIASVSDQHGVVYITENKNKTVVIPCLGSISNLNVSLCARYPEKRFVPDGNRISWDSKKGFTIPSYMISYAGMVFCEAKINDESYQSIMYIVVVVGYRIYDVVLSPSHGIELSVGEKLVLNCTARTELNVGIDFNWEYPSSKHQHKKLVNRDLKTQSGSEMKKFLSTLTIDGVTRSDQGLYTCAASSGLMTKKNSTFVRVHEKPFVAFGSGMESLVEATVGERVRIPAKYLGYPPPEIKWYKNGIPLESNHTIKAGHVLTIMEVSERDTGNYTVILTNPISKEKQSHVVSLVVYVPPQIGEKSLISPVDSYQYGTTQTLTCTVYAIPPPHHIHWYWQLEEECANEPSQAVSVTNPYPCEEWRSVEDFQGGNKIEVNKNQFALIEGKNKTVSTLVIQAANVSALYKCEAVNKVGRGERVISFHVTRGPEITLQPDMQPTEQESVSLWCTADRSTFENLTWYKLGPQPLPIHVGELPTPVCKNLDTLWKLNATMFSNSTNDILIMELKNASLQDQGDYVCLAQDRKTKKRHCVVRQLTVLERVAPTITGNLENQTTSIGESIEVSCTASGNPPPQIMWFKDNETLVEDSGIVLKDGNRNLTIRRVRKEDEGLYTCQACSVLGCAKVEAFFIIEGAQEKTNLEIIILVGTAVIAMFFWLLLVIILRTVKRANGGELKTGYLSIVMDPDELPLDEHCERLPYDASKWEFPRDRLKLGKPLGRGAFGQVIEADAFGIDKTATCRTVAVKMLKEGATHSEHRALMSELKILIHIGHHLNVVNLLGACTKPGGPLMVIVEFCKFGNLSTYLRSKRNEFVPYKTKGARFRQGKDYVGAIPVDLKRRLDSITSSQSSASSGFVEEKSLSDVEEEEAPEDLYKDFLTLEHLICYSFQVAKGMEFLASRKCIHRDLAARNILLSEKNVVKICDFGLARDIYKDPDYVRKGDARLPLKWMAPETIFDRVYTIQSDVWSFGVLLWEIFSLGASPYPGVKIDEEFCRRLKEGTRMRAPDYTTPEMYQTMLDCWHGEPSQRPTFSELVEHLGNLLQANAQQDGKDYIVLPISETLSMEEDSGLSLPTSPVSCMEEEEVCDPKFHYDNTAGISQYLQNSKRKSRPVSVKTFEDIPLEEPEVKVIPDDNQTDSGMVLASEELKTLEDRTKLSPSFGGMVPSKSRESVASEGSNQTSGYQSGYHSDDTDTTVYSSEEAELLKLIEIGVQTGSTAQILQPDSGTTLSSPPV

`CN1CCN(c2ccc(Nc3ncc(-c4cccc(OC5CCCC5)c4)o3)cc2F)CC1` [Example 28, 5-[3-(Cyclopentyloxy)phenyl]-N-[3-fluoro-4-(4-methylpiperazin-1-yl)phenyl]-1,3-oxazol-2-amine]: the IC50 at CDK4, at CDK2 and at hVEGFR2 was < 100 nM throughout.
`c1cc(OC2CCCC2)cc(-c2cnc(Nc3ccc(N4CCSCC4)cc3)o2)c1` [Example 30, 5-[3-(Cyclopentyloxy)phenyl]-N-(4-thiomorpholin-4-ylphenyl)-1,3-oxazol-2-amine]: the IC50 on CDK4 was < 1000 nM; against CDK2, < 10000 nM; on hVEGFR2 it was < 1000 nM.
As to `COc1cccc(-c2cnc(Nc3ccc(N4CCN(C)CC4)nc3)o2)c1` [Example 31, N-[5-(3-methoxyphenyl)-1,3-oxazol-2-yl]-6-(4-methylpiperazin-1-yl)pyridin-3-amine], the IC50 at CDK4, against CDK2 and on hVEGFR2 was < 1000 nM throughout.
`CN1CCN(c2ccc(Nc3ncc(-c4cccc(OC5CCCC5)c4)o3)cn2)CC1` [Example 34, N-{5-[3-(cyclopentyloxy)phenyl]-1,3-oxazol-2-yl}-6-(4-methylpiperazin-1-yl)pyridin-3-amine]: the IC50 on CDK4 was < 100 nM; on CDK2 it was < 100 nM; against hVEGFR2 it was < 1000 nM.
As for `CCN(CC)c1ccc(Nc2ncc(-c3cccc(OC)c3)o2)cn1` [Example 35, N^2,N^2-diethyl-N^5-[5-(3-methoxyphenyl)-1,3-oxazol-2-yl]pyridine-2,5-diamine], the IC50 on CDK4, at CDK2 and against hVEGFR2 was < 10000 nM each time.
On to `CCN(CC)c1ccc(Nc2ncc(-c3cccc(OC4CCCC4)c3)o2)cn1` [Example 36, N^5-{5-[3-(cyclopentyloxy)phenyl]-1,3-oxazol-2-yl}-N^2,N^2-diethylpyridine-2,5-diamine], for which the IC50 is < 1000 nM at CDK4, < 1000 nM on CDK2 and < 10000 nM against hVEGFR2.
In the case of `Cc1cc(Nc2ncc(-c3cccc(OC4CCCC4)c3)o2)cnc1N1CCN(C)CC1` [Example 37, N-{5-[3-(cyclopentyloxy)phenyl]-1,3-oxazol-2-yl}-5-methyl-6-(4-methylpiperazin-1-yl)pyridin-3-amine], the concentration for half-maximal inhibition (IC50) is < 100 nM at CDK4, < 1000 nM against CDK2 and < 1000 nM against hVEGFR2.
On to `COc1cccc(-c2cnc(Nc3ccc(CN4CCN(C)CC4)cc3)o2)c1` [Example 38, 5-(3-methoxyphenyl)-N-{4-[(4-methylpiperazin-1-yl)methyl]phenyl}-1,3-oxazol-2-amine], for which the IC50 at CDK4, against CDK2 and on hVEGFR2 was < 1000 nM in each case.
With `CN1CCN(Cc2ccc(Nc3ncc(-c4ccccc4)o3)cc2)CC1` [Example 39, N-{4-[(4-methylpiperazin-1-yl)methyl]phenyl}-5-phenyl-1,3-oxazol-2-amine], the IC50 at CDK4, against CDK2 and at hVEGFR2 was < 1000 nM throughout.
On to `COc1cccc(-c2cnc(Nc3ccc(CN(C)C)cc3)o2)c1` [Example 40, N-{4-[(dimethylamino)methyl]phenyl}-5-(3-methoxyphenyl)-1,3-oxazol-2-amine], for which the results for the IC50 on CDK4, against CDK2 and at hVEGFR2 were < 100 nM, < 1000 nM and < 1000 nM, respectively.
For the compound `COc1cccc(-c2cnc(Nc3ccc(CCN(C)C)cc3)o2)c1` [Example 42], the IC50 on CDK4 was < 100 nM; at CDK2, < 1000 nM; at hVEGFR2, < 1000 nM.
Turning to `COc1cccc(-c2cnc(Nc3ccc(CN4CCCCC4)cc3)o2)c1` [Example 43, 5-(3-methoxyphenyl)-N-[4-(piperidin-1-ylmethyl)phenyl]-1,3-oxazol-2-amine], the IC50 against CDK4 was < 100 nM; against CDK2, < 1000 nM; at hVEGFR2 it was < 1000 nM.
With `COc1cccc(-c2cnc(Nc3ccc(CN4CCCC4)cc3)o2)c1` [Example 44, 5-(3-methoxyphenyl)-N-[4-(pyrrolidin-1-ylmethyl)phenyl]-1,3-oxazol-2-amine], the figures for the IC50 against CDK4, at CDK2 and on hVEGFR2 were < 100 nM, < 1000 nM and < 100 nM, respectively.
Regarding `CCN(CC)Cc1ccc(Nc2ncc(-c3cccc(OC)c3)o2)cc1` [Example 45, N-{4-[(diethylamino)methyl]phenyl}-5-(3-methoxyphenyl)-1,3-oxazol-2-amine], the IC50 against CDK4 was < 100 nM; against CDK2, < 1000 nM; against hVEGFR2 it was < 1000 nM.
With `CCN(CC)CCNC(=O)c1ccc(Nc2ncc(-c3cccc(OC)c3)o2)cc1` [Example 46, N-[2-(diethylamino)ethyl]-4-{[5-(3-methoxyphenyl)-1,3-oxazol-2-yl]amino}benzamide], the IC50 against CDK4, at CDK2 and on hVEGFR2 was < 1000 nM each time.
Turning to `COc1cccc(-c2cnc(Nc3ccc(C(=O)N4CCN(C)CC4)cc3)o2)c1` [Example 47, 5-(3-methoxyphenyl)-N-{4-[(4-methylpiperazin-1-yl)carbonyl]phenyl}-1,3-oxazol-2-amine], the IC50 at CDK4, against CDK2 and on hVEGFR2 was < 1000 nM throughout.
As for `CCN(CC)CCNC(=O)c1ccc(Nc2ncc(-c3cccc(OC4CCCC4)c3)o2)cc1` [Example 48, 4-({5-[3-(cyclopentyloxy)phenyl]-1,3-oxazol-2-yl}amino)-N-[2-(diethylamino)ethyl]benzamide], the results for the IC50 against CDK4, on CDK2 and at hVEGFR2 were < 100 nM, < 1000 nM and < 1000 nM, respectively.
